Test results taken from US20050209278A1, “Piperidinyl- and piperazinyl-sulfonylmethyl hydroxamic acids and their use as protease inhibitors” (priority 2002, published 2005).

What was measured:
MMP-14 = target: T1, MMP-14 (Homo sapiens, UniProt P50281); assay: In vitro MMP inhibition, Ki determination (fluorogenic substrate II); format: biochemical; settings: value not in parenthesis; read-out: MMP-14 Ki
T1 construct: The catalytic domain enzyme was expressed in E. coli inclusion bodies, solubilized in urea; made in house
Outline: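 Apparent Ki was fitted with Morrison's equation from reaction rates at a single low enzyme level. Enzyme was APMA- or trypsin-activated refolded MMP-14 catalytic domain, buffered at pH 7.5 with 10 mM CaCl2.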

MMP-9 = target: T2, MMP-9 (Homo sapiens, UniProt P14780); assay: as above; format: biochemical; settings: value not in parenthesis
T2 construct: made in house; host or cells: MMP-9-transfected HT1080 cells (spent media)
T2 sequence (P14780 107-707 limits assumed): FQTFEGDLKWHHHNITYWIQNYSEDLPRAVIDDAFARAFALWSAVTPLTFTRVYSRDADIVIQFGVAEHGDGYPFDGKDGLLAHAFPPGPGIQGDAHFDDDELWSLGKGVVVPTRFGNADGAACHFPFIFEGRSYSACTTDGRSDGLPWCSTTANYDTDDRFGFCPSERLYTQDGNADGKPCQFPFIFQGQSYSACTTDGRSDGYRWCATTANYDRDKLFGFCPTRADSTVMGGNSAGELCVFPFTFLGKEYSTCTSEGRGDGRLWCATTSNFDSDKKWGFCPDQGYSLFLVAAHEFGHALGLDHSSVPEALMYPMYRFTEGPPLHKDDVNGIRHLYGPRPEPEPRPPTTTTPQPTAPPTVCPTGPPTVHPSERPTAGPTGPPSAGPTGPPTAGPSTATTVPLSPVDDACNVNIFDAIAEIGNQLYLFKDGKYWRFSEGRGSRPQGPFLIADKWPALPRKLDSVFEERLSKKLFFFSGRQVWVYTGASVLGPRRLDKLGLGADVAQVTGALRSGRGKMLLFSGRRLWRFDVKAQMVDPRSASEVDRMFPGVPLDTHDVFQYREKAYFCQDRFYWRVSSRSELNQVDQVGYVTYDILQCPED
Outline: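 HT1080-derived MMP-9, activated with APMA, trypsin or MMP-3, incubated 1 hr at room temperature with inhibitor and 4 μM fluorogenic substrate II (at or below Km) in pH 7.5 Tris/NaCl/CaCl2 buffer; ex 330/em 420 nm. Ki from Morrison-equation regression, without substrate correction.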

Compound	Ki (MMP-14) [µM]	Ki (MMP-9) [nM]
CCCCCc1ccc(N2CCN(S(=O)(=O)C3(C(=O)NO)CCN(C(C)=O)CC3)CC2)cc1 [Example 239]	1.05	0.46
CCCCCc1ccc(N2CCN(S(=O)(=O)C3(C(=O)NO)CCN(S(C)(=O)=O)CC3)CC2)cc1 [Example 237]	7.12	2.79
CCCCOc1ccc(N2CCN(S(=O)(=O)C3(C(=O)NO)CCN(c4cccc(C)c4)CC3)CC2)cc1 [Example 226]	> 10	19
CCCCCc1ccc(N2CCN(S(=O)(=O)C3(C(=O)NO)CCN(S(N)(=O)=O)CC3)CC2)cc1 [Example 205]	5.02	248
CCCc1ccc(N2CCN(S(=O)(=O)C3(C(=O)NO)CCN(c4ccc(C)cc4)CC3)CC2)cc1 [Example 171]	4.11	6.91
CCCCOc1ccc(N2CCN(S(=O)(=O)C3(C(=O)NO)CCN(CCCC(F)(F)F)CC3)CC2)cc1 [Example 238]	6.04	2.49
CCCCc1ccc(N2CCN(S(=O)(=O)C3(C(=O)NO)CCN(CCOC)CC3)CC2)cc1F [Example 173]	1.86	0.149
COCCSc1ccc(N2CCN(S(=O)(=O)C3(C(=O)NO)CCOCC3)CC2)cc1 [Example 227]	1.68	17.2
Cc1ccc(-c2ccc(N3CCN(S(=O)(=O)C4(C(=O)NO)CCOCC4)CC3)cc2)cc1 [Example 207]	> 10	12.3
CCCCOc1ccc(N2CCN(S(=O)(=O)C3(C(=O)NO)CCN(c4ccc5c(c4)OCO5)CC3)CC2)cc1 [Example 221]	> 10	14.6
O=C(NO)C1(S(=O)(=O)N2CCN(c3ccc(OC(F)(F)C(F)F)cc3)CC2)CCSCC1 [Example 62]	1.15	1.5
CCc1ccc(N2CCN(S(=O)(=O)C3(C(=O)NO)CCN(CCOC)CC3)CC2)cc1 [Example 193]	0.403	3.11
COCCN1CCC(C(=O)NO)(S(=O)(=O)N2CCN(c3ccc(CCCCC(C)C)cc3)CC2)CC1 [Example 191]	6.69	4.21
CCCCOc1ccc(N2CCN(S(=O)(=O)C3(C(=O)NO)CCN(c4ccsc4)CC3)CC2)cc1 [Example 223]	7.1	66.1
O=C(NO)C1(S(=O)(=O)N2CCN(c3ccc(COCC(F)(F)C(F)(F)F)cc3)CC2)CCOCC1 [Example 70]	> 10	49.7
CCCCOc1ccc(N2CCN(S(=O)(=O)C3(C(=O)NO)CCN(Cc4ccc(C)o4)CC3)CC2)cc1 [Example 246]	5.95	1.74
COCCN1CCC(C(=O)NO)(S(=O)(=O)N2CCN(c3ccc(Br)cc3)CC2)CC1 [Example 201]	0.12	3.48
CCCCOc1ccc(N2CCN(S(=O)(=O)C3(C(=O)NO)CCN(c4ccc(C#N)cc4)CC3)CC2)cc1 [Example 225]	> 10	28.1
CCCCOc1ccc(N2CCN(S(=O)(=O)C3(C(=O)NO)CCN(c4ccc(OC)c(OC)c4)CC3)CC2)cc1 [Example 229]	7.88	4.64
O=C(NO)C1(S(=O)(=O)N2CCN(c3ccc(OCC(F)(F)C(F)(F)F)cc3)CC2)CCOCC1 [Example 212]	5.63	2.91

Now from value to compound:

Ki (MMP-14) [µM]	Ki (MMP-9) [nM]	Compound
> 10	4.74	CCCCOc1ccc(N2CCN(S(=O)(=O)C3(C(=O)NO)CCN(c4ccc(N(C)C)cc4)CC3)CC2)cc1 [Example 241]
> 10	134	Cc1ccc(N2CCC(C(=O)NO)(S(=O)(=O)N3CCN(c4ccc(OCCCC(F)(F)F)cc4)CC3)CC2)cc1 [Example 161]
6.84	79.6	COCCN1CCC(C(=O)NO)(S(=O)(=O)N2CCN(c3nc4ccccc4o3)CC2)CC1 [Example 196]
2.05	0.7	CCCCOc1ccc(N2CCN(S(=O)(=O)C3(C(=O)NO)CCN(C(=O)N4CCCCC4)CC3)CC2)cc1 [Example 243]
0.0849	4.99	O=C(NO)C1(S(=O)(=O)N2CCN(c3ccccn3)CC2)CCOCC1 [Example 169]
> 10	157	O=C(NO)C1(S(=O)(=O)N2CCN(c3cnc(CCCC(F)(F)F)cn3)CC2)CCOCC1 [Example 209]
1.98	0.718	CCCCOc1ccc(N2CCN(S(=O)(=O)C3(C(=O)NO)CCN(Cc4ncc[nH]4)CC3)CC2)cc1 [Example 247]
0.569	2.5	O=C(NO)C1(S(=O)(=O)N2CCN(c3ccc(OC(F)(F)F)cc3)CC2)CCN(C2CC2)CC1 [Example 203]
0.199	12.3	COc1ccc(-c2ccc(N3CCN(S(=O)(=O)C4(C(=O)NO)CCOCC4)CC3)nc2)cc1 [Example 61]
5.31	3.9	CCCCOc1ccc(N2CCN(S(=O)(=O)C3(C(=O)NO)CCN(C(=O)N(C(C)C)C(C)C)CC3)CC2)cc1 [Example 244]
> 10	> 10000	O=C(NO)C1(S(=O)(=O)N2CCN(c3nncs3)CC2)CCOCC1 [Example 215]
0.414	23.2	COCCN1CCC(C(=O)NO)(S(=O)(=O)N2CCN(c3ccccc3)CC2)CC1 [Example 195]
1.28	252	O=C(NO)C1(S(=O)(=O)N2CCN(c3ccc(Cl)nn3)CC2)CCOCC1 [Example 198]
